The record followed here is patent US10023591B2, “Heterocyclic derivatives and use thereof” (C&C RESEARCH LABORATORIES, priority 2014, dated 2018).

Assay [1] has as its system STAT3. Put plainly: STAT3 reporter gene assay (luciferase), LNCaP stable cell line pSTAT3-TA-luc, IL-6 stimulation. The assay is classed as cell-based, human. The following applies: Homo sapiens. The gist of the method: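 LNCaP cells stably carrying pSTAT3-TA-luc were plated 24 h in 3% DCC-FBS medium, then given compound followed by IL-6 (10 ng/mL final) for 24 h at 37 °C. Luciferase was read from lysates, with CellTiter-Glo viability on a duplicate plate. Stimulated 0.1% DMSO wells served as uninhibited control.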
In general terms: In a reporter assay the amount or activity of a reporter protein is the signal.

For assay [2], the system named is STAT1. Put plainly: STAT1 reporter gene assay (luciferase), U2OS stable cell line pGL4-STAT1-TA-luc, IFN-γ stimulation. In kind it is cell-based, human. The following applies: Homo sapiens, IFN-γ 50 ng/mL, 8 hours, read-out: IC50 (μM) pSTAT1. The gist of the method: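 U2OS cells stably carrying a STAT1-driven luciferase reporter were treated with serially diluted compounds plus IFN-γ (50 ng/mL final) for 8 h at 37 °C in 10% FBS medium. Luciferase read after lysis; parallel plate assessed for cytotoxicity by CellTiter-Glo.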

The subject of assay [3] is LNCaP prostate cancer cell line. Description: Cell growth inhibition assay, LNCaP (CellTiter-Glo). The assay is classed as cell-based. The conditions noted are these: Homo sapiens; LNCaP, 10,000 cells/well, medium with 10 ng/mL IL-6, 96 hours. The protocol:
(§1) The inhibitory effects of the compounds of the present invention against the growth of cancer cells were evaluated as shown below. The cancer cell lines including prostate cancer cell lines (LNCaP, DU-145), stomach cancer cell line (NCI-N87), and breast cancer cell lines (MDA-MB-468) were cultured under the protocol provided by each supplier. A medium supplemented with 10 ng/mL of IL-6 was used for LNCaP, a prostate cancer cell line, when treated with a drug. Each type of cells to be used in experiments was sub-cultured in a 96-well plate by counting the exact number of cells using Tali™ Image-based Cytometer (Life Technologies). In a 96-well plate, DU-145 was employed with 3,000 cells/well; NCI-N87 was employed with 5,000 cells/well; and LNCaP and MDA-MB-468 were employed with 10,000 cells/well. The cells were treated with the compounds listed in Examples which were diluted in various concentrations. Upon completion of the compounds treatment, LNCaP, DU-145, NCI-N87 cells were cultured at 37° C. under 5% CO2 for 96 hours, and MDA-MB-468 cells were cultured at 37° C. in air for 96 hours. Subsequently, the cells were observed under microscope and drug precipitation and particular findings were investigated and recorded. And then, the 96-well plate was placed at room temperature for 30 minutes, added with 20 pt/well of CellTiter-Glo solution (Cat No. G7573, Promega) and shaken for 10 minutes, followed by being subjected to the measurement using PHERAstar™ microplate reader (BMG LABTECH) according to the supplier's general luminometer protocol. Wells where only culture liquid added without cell plating were used as a negative control, whereas wells where culture liquid containing 0.1% DMSO instead of the compounds listed in Examples were used as a positive control.
For orientation: ATP-based viability assays read luminescence as a measure of living cells.

Assay [4] concerns DU-145 prostate cancer cell line. Put plainly: Cell growth inhibition assay, DU-145 (CellTiter-Glo). In kind it is cell-based. The following applies: Homo sapiens; DU-145, 3,000 cells/well, 96 hours. As for the experimental part:
as §1

As to `CC(C)(c1cc2cc(C(=O)Nc3cc(Cl)cc(Oc4ccc(Cl)cc4)c3)sc2cc1F)S(C)(=O)=O` [Example 44, N-(3-chloro-5-(4-chlorophenoxy)phenyl)-6-fluoro-5-(2-(methylsulfonyl)propan-2-yl)benzo[b]thiophene-2-carboxamide], the half-inhibitory concentration (IC50) (usually the midpoint of a concentration-inhibition curve) is 0.019 µM in assay [1], greater than 50 µM in assay [2], 0.039 µM in assay [3] and 0.019 µM in assay [4].

As for `CS(=O)(=O)Cc1ccc2sc(C(=O)Nc3cc(Cl)cc(-c4ccc(F)cc4F)c3)cc2c1` [Example 95, N-(5-chloro-2′,4′-difluoro-[1,1′-biphenyl]-3-yl)-5-((methylsulfonyl)methyl)benzo[b]thiophene-2-carboxamide], the half-inhibitory concentration (IC50) is 0.028 µM in assay [1], 35.7 µM in assay [2], 0.023 µM in assay [3] and 0.013 µM in assay [4].

On to `COc1ccc(C(C)(C)c2cc(Cl)cc(NC(=O)c3cc4cc(C(C)(C)S(C)(=O)=O)ccc4s3)c2)cc1` [Example 17, N-(3-chloro-5-(2-(4-methoxyphenyl)propan-2-yl)phenyl)-5-(2-(methylsulfonyl)propan-2-yl)benzo[b]thiophene-2-carboxamide], for which the IC50 in assay [1] was 0.045 µM; in assay [2] it was greater than 50 µM; in assay [3] it was 0.08 µM; in assay [4], 0.039 µM.

As to `CC(C)(c1ccc2sc(C(=O)Nc3cc(Oc4ccc(Cl)cc4)cc(Cl)n3)cc2c1)S(C)(=O)=O` [Example 63, N-(6-chloro-4-(4-chlorophenoxy)pyridin-2-yl)-5-(2-(methylsulfonyl)propan-2-yl)benzo[b]thiophene-2-carboxamide], the IC50 in assay [1] was 0.034 µM; in assay [2] it was greater than 50 µM; in assay [3] it was 0.046 µM; in assay [4] it was 0.032 µM.

For `CC(C)(c1ccc(Cl)cc1)c1cc(Cl)cc(NC(=O)c2cc3cc(C4(S(C)(=O)=O)CCOCC4)ccc3s2)c1` [Example 34, N-(3-chloro-5-(2-(4-chlorophenyl)propan-2-yl)phenyl)-5-(4-(methylsulfonyl)tetrahydro-2H-pyran-4-yl)benzo[b]thiophene-2-carboxamide], the 50% inhibitory concentration (IC50) in assay [1] is 8.7 µM; in assay [2] it was greater than 50 µM; in assay [3], greater than 1.1 µM; in assay [4], greater than 1.1 µM.

Turning to `COc1cc(F)cc(Oc2cc(Cl)cc(NC(=O)c3cc4cc(C(C)(C)S(C)(=O)=O)ccc4s3)c2)c1` [Example 53, N-(3-chloro-5-(3-fluoro-5-methoxyphenoxy)phenyl)-5-(2-(methylsulfonyl)propan-2-yl)benzo[b]thiophene-2-carboxamide], the half-maximal inhibitory concentration (IC50) was 0.033 µM in assay [1], greater than 50 µM in assay [2], 0.037 µM in assay [3] and 0.02 µM in assay [4].

Turning to `CC(C)(c1ccc(Cl)cc1)c1cc(Cl)cc(NC(=O)c2cc3cc(C(C)(C)S(C)(=O)=O)c(Cl)cc3s2)c1` [Example 23, 6-chloro-N-(3-chloro-5-(2-(4-chlorophenyl)propan-2-yl)phenyl)-5-(2-(methylsulfonyl)propan-2-yl)benzo[b]thiophene-2-carboxamide], the IC50 in assay [1] is 0.084 µM; in assay [2], greater than 50 µM; in assay [3], 0.8 µM; in assay [4], 0.04 µM.

On to `CC(C)(c1ccc(Cl)cc1)c1cc(NC(=O)c2cc3cc(C(C)(C)S(C)(=O)=O)ccc3s2)n(C(C)(C)C)n1` [Example 88, N-(1-(tert-butyl)-3-(2-(4-chlorophenyl)propan-2-yl)-1H-pyrazol-5-yl)-5-(2-(methylsulfonyl)propan-2-yl)benzo[b]thiophene-2-carboxamide], for which the IC50 in assay [1] was greater than 10 µM; in assay [2], greater than 50 µM; in assay [3] it was greater than 1.1 µM; in assay [4], greater than 1.1 µM.

As to `CC(C)(c1ccc(Cl)cc1)c1cc(NC(=O)c2cc3cc(C(C)(C)S(C)(=O)=O)ccc3s2)[nH]n1` [Example 89, N-(3-(2-(4-chlorophenyl)propan-2-yl)-1H-pyrazol-5-yl)-5-(2-(methylsulfonyl)propan-2-yl)benzo[b]thiophene-2-carboxamide], the half-inhibitory concentration (IC50) in assay [1] was 0.14 µM; in assay [2], greater than 50 µM; in assay [3], 0.24 µM; in assay [4], 0.11 µM.

Take `CC1(C)CC(Oc2cc(Cl)cc(NC(=O)c3cc4cc(C(C)(C)S(C)(=O)=O)ccc4s3)c2)CC(C)(C)N1` [Example 92, N-(3-chloro-5-((2,2,6,6-tetramethylpiperidin-4-yl)oxy)phenyl)-5-(2-(methylsulfonyl)propan-2-yl)benzo[b]thiophene-2-carboxamide]: the 50% inhibitory concentration (IC50) in assay [1] was 5.5 µM; in assay [2], 9.6 µM; in assay [3], greater than 1.1 µM; in assay [4], greater than 1.1 µM.

With `CC(C)(c1ccc2sc(C(=O)Nc3cc(Cl)cc(Oc4ccc(Cl)c(F)c4)c3)cc2c1)S(C)(=O)=O` [Example 54, N-(3-chloro-5-(4-chloro-3-fluorophenoxy)phenyl)-5-(2-(methylsulfonyl)propan-2-yl)benzo[b]thiophene-2-carboxamide], the half-maximal inhibitory concentration (IC50) in assay [1] is 0.014 µM; in assay [2], greater than 50 µM; in assay [3], 0.029 µM; in assay [4], 0.0059 µM.

Take `CC(C)(c1ccc2sc(C(=O)Nc3cc(Cl)cc(Oc4ccc(Cl)cc4)c3)cc2c1)S(C)(=O)=O` [Example 49, N-(3-chloro-5-(4-chlorophenoxy)phenyl)-5-(2-(methylsulfonyl)propan-2-yl)benzo[b]thiophene-2-carboxamide]: the half-inhibitory concentration (IC50) in assay [1] is 0.019 µM; in assay [2], greater than 50 µM; in assay [3], 0.019 µM; in assay [4], 0.013 µM.

In the case of `CC(C)(c1ccc2sc(C(=O)Nc3cc(Cl)cc(Oc4ccc(C(F)(F)F)cc4)c3)cc2c1)S(C)(=O)=O` [Example 38, N-(3-chloro-5-(4-(trifluoromethyl)phenoxy)phenyl)-5-(2-(methylsulfonyl)propan-2-yl)benzo[b]thiophene-2-carboxamide], the IC50 in assay [1] is 0.018 µM; in assay [2], greater than 50 µM; in assay [3] it was 0.0083 µM; in assay [4] it was 0.0053 µM.

`CC(C)(c1ccc2sc(C(=O)Nc3cc(Cl)cc(Oc4ccc(Cl)cc4)n3)cc2c1)S(C)(=O)=O` [Example 66, N-(4-chloro-6-(4-chlorophenoxy)pyridin-2-yl)-5-(2-(methylsulfonyl)propan-2-yl)benzo[b]thiophene-2-carboxamide]: the concentration for half-maximal inhibition (IC50) in assay [1] is 0.18 µM; in assay [2] it was greater than 50 µM; in assay [3] it was 0.26 µM; in assay [4], 0.17 µM.

As for `COc1cc(NC(=O)c2cc3cc(C(C)(C)S(C)(=O)=O)ccc3s2)cc(Oc2ccc(Cl)cc2)c1` [Example 46, N-(3-(4-chlorophenoxy)-5-methoxyphenyl)-5-(2-(methylsulfonyl)propan-2-yl)benzo[b]thiophene-2-carboxamide], the 50% inhibitory concentration (IC50) in assay [1] was 0.054 µM; in assay [2], greater than 50 µM; in assay [3], 0.11 µM; in assay [4], 0.07 µM.

Take `CN(c1ccc(Cl)cc1)c1cc(NC(=O)c2cc3cc(C(C)(C)S(C)(=O)=O)ccc3s2)cc(Cl)n1` [Example 100, N-(2-chloro-6-((4-chlorophenyl)(methyl)amino)pyridin-4-yl)-5-(2-(methylsulfonyl)propan-2-yl)benzo[b]thiophene-2-carboxamide]: the IC50 was 0.07 µM in assay [1], greater than 50 µM in assay [2], 0.14 µM in assay [3] and 0.026 µM in assay [4].

On to `CN(c1ccc(Cl)cc1)c1cc(Cl)cc(NC(=O)c2cc3cc(C(C)(C)S(C)(=O)=O)ccc3s2)c1` [Example 99, N-(3-chloro-5-((4-chlorophenyl)(methyl)amino)phenyl)-5-(2-(methylsulfonyl)propan-2-yl)benzo[b]thiophene-2-carboxamide], for which the IC50 in assay [1] was 0.11 µM; in assay [2], greater than 50 µM; in assay [3], 0.14 µM; in assay [4] it was 0.046 µM.

For `CC(C)(c1ccc(Cl)cc1)c1cc(Cl)cc(NC(=O)c2cc3cc(CS(=O)(=O)C(F)(F)F)ccc3s2)c1` [Example 24, N-(3-chloro-5-(2-(4-chlorophenyl)propan-2-yl)phenyl)-5-(((trifluoromethyl)sulfonyl)methyl)benzo[b]thiophene-2-carboxamide], the IC50 in assay [1] is 0.9 µM; in assay [2], greater than 50 µM; in assay [3], greater than 1.1 µM; in assay [4], greater than 1.1 µM.
